Several values for one entry are separate records, joined by “and”; a condition that tells them apart may be missing. Equal entries are not always repeated.
Test system: 817829-284-R-J1-PDC complex spheroids, viability
Test: Anticancer human tumor 817829-284-R-J1-PDC patient-derived colon adenocarcinoma cell line growth inhibition [GQUAD]
Conditions: for viability, T/C: stronger effect = lower value
Text: DNA G-quadruplex Stabilizer Agents in Combinations in Complex Spheroids
A high-throughput screen of multi-cell type tumor spheroids was designed to identify active combinations of DNA G-quadruplex stabilizer agents and targeted small molecules. Complex spheroids include a stromal component modeled by human endothelial cells (HUVEC) and fibroblasts modeled by human mesenchymal stem cells (MSCs). The concentration ranges selected for each drug and investigational agent were based upon clinically achievable concentrations if the clinical Cmax of the agent was known.
Compounds. The drugs and investigational agents: pidnarulex (CX-5461; NSC782164), APTO-253 (NSC789042), BRACO-19 (NSC847499), peposertib (NSC802822), ceralasertib (NSC780249), elimusertib (NSC800525), camonsertib (NSC841442), AZD-1390 (NSC803789), olaparib (NSC753686), talazoparib (NSC767125), ART-558 (NSC835418), sotorasib (NSC818433), MRTX-1133 (NSC836407), SN-38 (NSC673596), topotecan (NSC609699), etoposide (NSC141540), doxorubicin (NSC123127), gemcitabine (NSC613327), 5-fluorouracil (NSC19893), paclitaxel (NSC125973), vemurafenib (NSC761431), panobinostat (NSC761190), R-306465 (JNJ-16241199; NSC773264), adavosertib (NSC754352), TP-3654 (NSC805149), carboplatin (NSC241240), KSQ-4279 (NSC840948), and staurosporine (NSC755774) were obtained from the National Cancer Institute (NCI) Developmental Therapeutics Program Chemical Repository (34). The FDA-approved anticancer drug set is available from the NCI Developmental Therapeutics Program. […] The stock solutions were prepared in dimethyl sulfoxide (DMSO, Sigma-Aldrich, St. Louis, MO, cat. D2650) at 800-fold the tested concentration and stored at -70 degrees C prior to their use. All drugs and investigational agents were tested over a range starting from a high concentration at or near the clinical Cmax and decreasing in half-log increments. If the clinical Cmax for an agent had not been determined, the highest concentration tested was 10 microM.
2.3 Cell Culture. All cells were maintained in an incubator at 37 degrees C and 5% CO2 with 95% humidity. The PDC lines were cultured according to standard operating procedures established by the NCI PDMR. All PDCs were thawed and cultured in Matrigel-coated flasks prepared with a working solution of 1X Ham's F-12 nutrient mix, without supplementation (Invitrogen, cat. 11765054), 100 U/mL penicillin-streptomycin (Invitrogen, cat. 15140122), and 2.5% Matrigel (Corning Inc., cat. 354248) for the first three passages. The 857933-349-R-J2-PDC line was cultured in 6C/Colon 1B media, which includes advanced DMEM/F-12 (Thermo Fisher Scientific, cat. 12634028), 10 mM HEPES (Thermo Fisher Scientific, cat. 15630080), 1X GlutaMAX supplement (Thermo Fisher Scientific, cat. 35050061), 0.1 mg/mL primocin (InvivoGen, cat. ant-pm-2), 10% defined fetal bovine serum, heat inactivated (HyClone Laboratories Inc., cat. SH30070.03HI), 50% L-WRN conditioned media (ATCC, cat. CRL-3276), 1.25 mM N-Acetyl-L-cysteine (Sigma-Aldrich, cat. A9165), 10 mM nicotinamide (Sigma-Aldrich, cat. N0636), 1X B-27 supplement (Thermo Fisher Scientific, cat. 17504044), 1X N-2 supplement (Thermo Fisher Scientific, cat. 17502048), 10 microM Y-27632 dihydrochloride (Tocris Bioscience, cat. 1254), and 50 ng/mL human EGF recombinant protein (Thermo Fisher Scientific, cat. PHG0311). The 485176-168-R4-J1-PDC line was cultured in Panc media, which includes all 6C/Colon 1B media components plus 100 ng/mL human FGF-10 (Thermo Fisher Scientific, cat. 100-26), 500 nM SB-431542 (Selleckchem, cat. S1067), and gastrin (Tocris, cat. 3006).
[…]
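Note: spheroids exposed to agents for 7 days before readout.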
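Throughout, for viability, T/C: percent viability relative to DMSO vehicle control taken as 100%.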

IC50 (curve of compound) | IC50 (compound alone, run of 02/26/2024) [nM] | Compound | viability, T/C (compound 0.0316 µM) | viability, T/C (compound 0.1 µM) | viability, T/C (compound 0.316 µM) | viability, T/C (compound 1 µM) | viability, T/C (compound 3.16 µM) | viability, T/C (compound 10 µM) | viability, T/C (compound 0.000999 µM) | viability, T/C (compound 0.00316 µM) | viability, T/C (compound 0.00999 µM) | viability, T/C (compound 0.0999 µM)
> 10000 nM |  | C=CC(=O)N1CCN(c2nc(=O)n(-c3c(C)ccnc3C(C)C)c3nc(-c4c(O)cccc4F)c(F)cc23)C(C)C1 (stereo unspecified) | 94.6% and 98.7% and 113% | 87.2% and 97.6% and 96.2% | 96% and 99.3% and 113% | 84.4% and 93.2% and 89.2% | 108% and 102% and 112% | 98.3% and 81.2% and 102% |  |  |  | 
245 nM and 237 nM and 232 nM |  | C=CCn1c(=O)c2cnc(Nc3ccc(N4CCN(C)CC4)cc3)nc2n1-c1cccc(C(C)(C)O)n1 | 97.1% and 105% and 99.8% | 95.4% and 102% and 93.9% | 37.1% and 32.5% and 33.8% | 7.67% and 9.37% and 5.53% | 6.89% and 6.69% and 4.84% | 5.09% and 5.85% and 4.19% |  |  |  | 
> 10000 nM and 1780 nM |  | CC(C)(O)C1CCC(Nc2ccc3ncc(-c4cccc(C(F)(F)F)c4)n3n2)CC1 (stereo unspecified) | 99.8% and 97.4% and 104% | 95.4% and 98.8% and 80.9% | 106% and 104% and 101% | 68.3% and 84.7% and 79% | 50.6% and 46.8% and 19.7% | 67.2% and 53% and 22.6% |  |  |  | 
> 10000 nM |  | CC(C)n1c(=O)n(C)c2cnc3cc(F)c(-c4ccc(OCCCN5CCCCC5)nc4)cc3c21 | 106% and 107% and 100% | 101% and 102% and 97.5% | 95.1% and 105% and 102% | 89.8% and 100% and 89.2% | 104% and 113% and 101% | 107% and 103% and 60.3% |  |  |  | 
 | > 10000 | CN(C)c1ccc(Nc2c3ccc(NC(=O)CCN4CCCC4)cc3nc3cc(NC(=O)CCN4CCCC4)ccc23)cc1 | 102% [middle of 12 runs] | 99.2% [middle of 12 runs] | 97.7% [middle of 12 runs] | 102% [middle of 12 runs] | 100% [middle of 12 runs] | 93.7% [middle of 12 runs] |  |  |  | 

Second part, the molecule before the results:

Compound | IC50 (curve of compound) | IC50 (compound alone, run of 02/26/2024) [nM] | viability, T/C (compound 0.0316 µM) | viability, T/C (compound 0.1 µM) | viability, T/C (compound 0.316 µM) | viability, T/C (compound 1 µM) | viability, T/C (compound 3.16 µM) | viability, T/C (compound 10 µM) | viability, T/C (compound 0.000999 µM) | viability, T/C (compound 0.00316 µM) | viability, T/C (compound 0.00999 µM) | viability, T/C (compound 0.0999 µM)
C#Cc1c(F)ccc2cc(O)cc(-c3ncc4c(N5CC6CCC(C5)N6)nc(OCC56CCCN5CC(F)C6)nc4c3F)c12 (stereo unspecified) | > 10000 nM |  | 103% and 97.4% and 94.3% | 88.4% and 96.9% and 109% | 99.2% and 102% and 103% | 84.3% and 102% and 93.9% | 110% and 95.8% and 102% | 114% and 104% and 131% |  |  |  | 
CC(=O)O[C@H]1C(=O)[C@@]2(C)[C@H]([C@H](OC(=O)c3ccccc3)[C@]3(O)C[C@H](OC(=O)[C@H](O)[C@@H](NC(=O)c4ccccc4)c4ccccc4)C(C)=C1C3(C)C)[C@]1(OC(C)=O)CO[C@@H]1C[C@@H]2O | < 31.6 nM |  | 5.56% and 11.2% and 8.51% | 5.44% and 6.01% and 3.69% | 5.01% and 4.83% and 4.1% | 4.55% and 4.35% and 3.93% | 3.56% and 3.34% and 3.72% | 5.03% and 4.92% and 4.14% |  |  |  | 
CC1COCCN1c1cc(-c2ccnn2C)c2ccnc(-c3ccn[nH]3)c2n1 (stereo unspecified) | 46.4 nM and < 31.6 nM and 44.4 nM |  | 67.1% and 49.9% and 63.2% | 15.9% and 20.1% and 19.1% | 8.87% and 9.11% and 9.13% | 5.41% and 7.67% and 7.19% | 5.54% and 7.47% and 5.88% | 4.28% and 5.96% and 5.46% |  |  |  | 
CC1COCCN1c1cc(C2(O)CC3CCC(C2)O3)c2cnn(-c3ccn[nH]3)c2n1 (stereo unspecified) | < 31.6 nM |  | 39.5% and 42.2% and 31.3% | 10.2% and 9.96% and 13.3% | 7.94% and 8.95% | 6.19% and 4.8% and 7.29% | 5.19% and 5.01% and 5.9% | 2.86% and 3.51% and 4.63% |  |  |  | 
CC1COCCN1c1cc(C2(S(C)(=N)=O)CC2)nc(-c2ccnc3[nH]ccc23)n1 (stereo unspecified) | 649 nM and 654 nM and 697 nM |  | 112% and 93.9% and 91.7% | 89.1% and 102% and 105% | 93.1% and 88.9% and 90% | 24.1% and 27.1% and 31.6% | 11% and 9.68% and 11.2% | 8.31% and 9.22% and 9.36% |  |  |  | 
CCCS(=O)(=O)Nc1ccc(F)c(C(=O)c2c[nH]c3ncc(-c4ccc(Cl)cc4)cc23)c1F | 5280 nM and 6050 nM and 4910 nM |  | 117% and 113% and 109% | 106% and 102% and 81.6% | 110% and 103% (2×) | 92.1% and 92.8% and 79.2% | 75.5% and 88.9% and 75.2% | 21% and 22% and 16.1% |  |  |  | 
CC[C@@]1(O)C(=O)OCc2c1cc1n(c2=O)Cc2cc3c(CN(C)C)c(O)ccc3nc2-1 | 37.6 nM and 59.5 nM and 30.1 nM |  | 53.6% and 60.3% and 47.5% |  | 26.1% and 37.7% and 29.7% |  |  |  | 107% and 116% and 105% | 94.3% (2×) and 87.9% | 107% (2×) and 109% | 33.9% and 45.5% and 27.7%
CCc1c2c(nc3ccc(O)cc13)-c1cc3c(c(=O)n1C2)COC(=O)[C@]3(O)CC | 1.58 nM and 2.31 nM and 1.63 nM |  | 15.5% and 21.2% and 14.7% |  | 5.27% and 4.91% and 3.96% |  |  |  | 63% and 65.3% and 63.2% | 26.9% and 40% and 26.7% | 24.7% and 33% and 30.2% | 9.08% and 10.2% and 7.65%
